row,melting point [°C],Compound
1,209 to 214,N[C@@H](CSCc1ccccc1)C(=O)O
2,241,Oc1ccc(-c2nnc3n2NC(c2ccccc2O)S3)cc1 (stereo unspecified)
3,92,Brc1ccc2cc[nH]c2c1
4,-94,CCOC(C)(C)C
5,99 to 101,O=C(NCN(CNC(=O)c1ccccc1)N(CNC(=O)c1ccccc1)CNC(=O)c1ccccc1)c1ccccc1
6,133 to 134,Cc1ccc(N)c(C(=O)NN)c1
7,76 to 77,Cc1noc(C)c1CO
8,268 to 275,O=C1Nc2c(C(=O)O)cccc2C1=O
9,77,CCOC(=O)Cc1n[nH]c2ccc(Cl)cc12
10,198,COC(=O)C1=C(C)NC(C)=C(C(=O)OC)C1c1ccccc1
11,22.5 to 24.5,Clc1nccnc1Cl
12,148 to 150,CCC1CC(NC(=O)CBr)C(C)(C)N1O (stereo unspecified)
13,153,O=C(/C=C/c1ccc(Cl)c(Cl)c1)c1ccc2ccccc2c1
14,90,CCOC(=O)C(C)Oc1ccc(Oc2nc3ccc(Cl)cc3o2)cc1 (stereo unspecified)
15,91,O=CC[C@@H](O)[C@H](O)CO
16,246,NC1C2CN(c3nc4c(cc3F)c(=O)c(C(=O)O)cn4-c3ccc(F)cc3F)CC12 (stereo unspecified)
17,103,CC(O)C(NC(=O)OCc1ccccc1)C(=O)O (stereo unspecified)
18,160 to 163,CNc1ccc(C(=O)O)cc1
19,116 to 118,COC(=O)CCC(C)C1CCC2C3CCC4CC(=O)CCC4(C)C3CCC12C (stereo unspecified)
20,99.5 to 102,N#Cc1ccc(CS(=O)(=O)Cl)cc1
21,79 to 81,CCCCOc1ccc(-c2nnc3sc(/C=C/c4ccccc4)nn23)cc1
22,265 to 267,CC(CCC(=O)O)C1CCC2C(C(=O)O)C(C3(C)CCCCC3C(=O)O)CCC12C (stereo unspecified)
23,242,CS(=O)(=O)c1ccc(-c2cn3ccccc3n2)cc1
24,120 to 124,OC1OC(C2COC3(CCCCC3)O2)C2OC3(CCCCC3)OC12 (stereo unspecified)
25,86,Cc1cc(Br)c(Br)cc1C
26,120 to 122,Cc1nc(-c2ccc(C(=O)Cl)cc2)cs1

row,melting point [°C],Compound
1,49 to 50,CCOC(=O)c1cc(-c2ccco2)on1
2,124,CC(C)(C)OC(=O)N[C@@H](Cc1cccc(C#N)c1)C(=O)O
3,284,Cn1c(=O)c(C2=NNC(=O)C2=NNc2cc(Cl)ccc2Cl)c(O)c2ccccc21
4,76 to 79,CC(=O)Oc1ccc([N+](=O)[O-])cc1
5,134 to 139,CC(C)(C)OC(=O)N[C@@H](Cc1c[nH]c2ccccc12)C(=O)O
6,82 to 85,O=C(O)C(F)c1ccccc1 (stereo unspecified)
7,98 to 99,CC(C)(C)OC(=O)NCc1ccc(CO)cc1
8,72 to 75,Cc1nc(-c2ccccc2)c(C=O)s1
9,68 to 70,C#Cc1ccc(C(C)=O)cc1
10,118 to 122,CCOC(=O)c1c(SC)nn2c(=O)n(Nc3ccccc3)cnc12
11,77,COc1ccc(OC)c(C(=O)O)c1
12,35.4 to 39.6,CCCCCCCCCCCCCCCCOCCOCCOCCOCCOCCOCCOCCOCCOCCOCCOCCOCCOCCOCCOCCOCCOCCOCCOCCOCCO
13,21,CCOc1ccccc1C=O
14,59,O=c1ccoc2ccccc12
15,132,COC1=CC(=O)NC1
16,173 to 176,Cc1ccc(-c2cc(N)n(-c3ccccc3)n2)cc1
17,70,OCc1cc2c(cc1Cl)OCO2
18,25.5,CCCCCCCCCCCCCCCCCC(=O)OCCC(C)C
19,129,Cc1cc(CO)c(O)c(CO)c1
20,46,COc1ccc2c(c1)N(CCCN(C)C)c1ccccc1S2
21,109,c1ccc(-c2noc(-c3ccccc3)n2)cc1
22,233 to 234,O=C(O)c1cc2cc(Br)ccc2s1
23,-45,CCC(CC)COC(=O)CCCCCCCC(=O)OCC(CC)CC
24,155,N#CC1OCC(OC(=O)c2ccccc2)C(OC(=O)c2ccccc2)C1OC(=O)c1ccccc1 (stereo unspecified)
25,335,CC(C)(N)C(=O)O
26,72 to 73,COc1ccc2c(c1C)CC2=O

row,melting point [°C],Compound
1,-87,Cc1cccc(F)c1
2,81,O=C(O)CCCCCCC(=O)c1ccccc1
3,170 to 172,NS(=O)(=O)c1cc(Cl)cc(Cl)c1
4,243,c1ccc2c(c1)NC1(CCCCC1)O2
5,160,COC(=O)c1c(C)[nH]c(C)c1C=O
6,151,CC1NC(=O)NC1=O (stereo unspecified)
7,152 to 156,CC(=O)Oc1ccc2c(C)cc(=O)oc2c1
8,118 to 130,Nc1cccnc1O
9,53 to 58,O=C(c1ccccc1)C(Br)c1ccccc1 (stereo unspecified)
10,230 to 231,COc1cc(-c2n[nH]c(=S)n2/N=C/c2cc(Br)ccc2O)cc(OC)c1OC
11,176 to 178,O=C(O)c1ccc(CSc2ccc(C(F)(F)F)cn2)o1
12,43,CCCCCCCC(=O)CCCCCCC
13,94 to 95,Brc1ccc(Oc2ccc(Br)c(Br)c2)cc1Br
14,84.5,CN(C)C(=O)CCC(=O)O
15,80,COc1ccc2cc(CCC(C)=O)ccc2c1
16,190 to 193,CCOC(=O)c1sc(SC)c2c1-c1ccccc1N(C)S2(=O)=O
17,160 to 170,O=C1c2ccccc2S(=O)(=O)N1Br
18,174,CC12CCC3C(=CCc4cc(O)ccc43)C1CCC2O (stereo unspecified)
19,27,CCCC(c1ccccc1)c1ccccc1
20,263 to 265,COC(=O)c1cc2c(=O)oc3ccccc3c2nc1N
21,136,Cc1ccc(O)c(N)c1
22,104 to 106,Cn1ccnc1C(=O)O
23,209 to 211,CSc1sc(C(=O)O)c(-c2cccc(Cl)c2)c1C#N
24,216,Nc1cc2ccccc2cc1C(=O)O
25,252 to 258,O=C(O)c1sc2sccc2c1Cl

# More lines, now with the values behind:
row,Compound,melting point [°C]
1,Cc1cc(C)c(C)c(S(=O)(=O)NCC(=O)O)c1C,167
2,OC(c1c(F)c(F)c(F)c(F)c1F)c1c(F)c(F)c(F)c(F)c1F,76 to 80
3,NC(=O)C(F)(F)Cl,82
4,CCCC#CCCCC(=O)O,-3
5,CC(C)(C)OC(=O)N1CCC(C(=O)c2ccc(F)cc2)CC1,89 to 91
6,O=[N+]([O-])c1ccc(/C=C/C=C/C=C/c2ccc([N+](=O)[O-])cc2)cc1,240
7,NS(=O)(=O)c1ccc(Br)s1,139 to 141
8,CCc1cccc(C)c1N(COC(C)C)C(=O)CCl,21.6
9,O=C(Nc1ccc(Br)cc1)c1cc(Br)cc(Br)c1O,227
10,O=C(O)CC1C=CCC1 (stereo unspecified),19
11,O=[N+]([O-])c1ccc(S(=O)(=O)F)cc1,76 to 80
12,Nc1cccnc1[N+](=O)[O-],194 to 196
13,Clc1ccc2ccccc2c1,61
14,Cc1cc(Cl)ccc1OCC(=O)O,120
15,Brc1ccc2c(c1)OCCOCCOCCOCCO2,66 to 71
16,CC1CC(C)C(=O)C(C(O)CC2CC(=O)NC(=O)C2)C1 (stereo unspecified),119
17,CN=C1CN(O)C(c2ccccc2)=c2cc(Cl)ccc2=N1,236
18,CC(C)(C)c1ccc(-c2nnc(-c3ccc(-c4ccccc4)cc3)o2)cc1,137
19,CC(=O)c1occc1O,100
20,O=C(O)C(=O)Cc1c[nH]c2ccccc12,215
21,C=C/C=C/C=C,-12
22,O=P(OC(CCl)CCl)(OC(CCl)CCl)OC(CCl)CCl,27
23,CC(=O)SCC(C)C(=O)N1CCCC1C(=O)O (stereo unspecified),76 to 82
24,O=c1c(O)c(O)c(=O)c1=O,331 to 334
25,CC12CCC(O)CC1CCC1C2CCC2(C)C(C3=CC(=O)OC3)CCC12O (stereo unspecified),253
26,COc1ccc(C(=O)O)cc1OCc1ccccc1,180
27,O=C(O)C=CC(=O)Nc1cccc2ccccc12,150 to 153

row,Compound,melting point [°C]
1,N#CC1(c2ccc(F)cc2Cl)CCCCC1,58 to 65
2,CC(=NNc1nc(C)cc(C)n1)c1ccccc1C,176
3,COc1ccc(C(=O)NN=C(C)c2c(O)c3ccccc3n(-c3ccccc3)c2=O)cc1,218
4,CCCCCCCCOc1ccc(NC(=O)c2ccc(CC)cc2)cc1,143
5,O=C(NC(Cc1ccccc1)C(=O)O)OCc1ccccc1 (stereo unspecified),88.5
6,ClC=CCCl (mixture of isomers),-50
7,CCCOc1ccc(C#N)cc1,41
8,COc1ccc2c(OC)cccc2c1,58.5
9,CCCC(C(N)=O)n1nnc2ccccc21 (stereo unspecified),125
10,ClC1OCCOC1Cl (stereo unspecified),30
11,O=C1c2ccccc2C(=O)N1c1n[nH]c2ncccc12,254
12,Nc1ccc2cc3ccc(N)cc3nc2c1,285
13,O=C(C=Cc1ccc(-c2cccc([N+](=O)[O-])c2)o1)c1ccccc1,146 to 147
14,O=c1cc(Cl)nc[nH]1,194 to 195
15,Nc1ccccc1Cl,-3
16,c1ccc(OCc2ccc(CCN3CCOCC3)cc2)cc1,86
17,Cc1ccc(C#N)c(F)c1,53
18,C=C(C)CCCCCCCCCCCCCC,2
19,O=C(O)c1cc(O)[nH]c(=O)c1,300
20,CCc1[nH]c2ccccc2c1C,62 to 65
21,O=Cc1coc2c(Cl)cc(Cl)cc2c1=O,169 to 174
22,Fc1ccc(P(c2ccc(F)cc2)c2ccc(F)cc2)cc1,80
23,COc1ccccc1N/N=C(\C(N)=O)c1nc2ccccc2s1,212
24,Cc1ccc(C)n1-c1cc(Cl)c([N+](=O)[O-])cc1Cl,82 to 84
25,O=C(O)[C@H]1CCCCN1C(=O)OCC1c2ccccc2-c2ccccc21,149 to 153
26,COc1cc2c(cc1O)CCNC2,222
27,CCCCC(=O)c1ccc(O)cc1,62 to 65
